Measurements published in US10047341B2, “Generation of keratinocytes from pluripotent stem cells and maintenance of keratinocyte cultures” (FUJIFILM Cellular Dynamics, Inc., priority 2014, dated 2018).
Entries after “also recorded” stand apart in the source; their conditions may differ.

Key:
[1] = test system: primary human keratinocytes; assay: Colony formation assay (CFA) of primary keratinocytes; assay type: cell-based; conditions: for performance in CFA: KCM1 supplemented with either IGF or insulin, CFA in KCM1 (10 μg/mL insulin), 12 days
Protocol: Cells were plated at low density (250 cells/well of a 6-well plate) and allowed to grow for 8-12 days. For FIGS. 7 and 8, cells were switched from the indicated culture medium to KCM1 (10 μg/mL insulin) at the beginning of the CFA. Keratinocytes were cultured in KCM1 (10 μg/mL insulin) for 12 days and colony size was measured. For FIGS. 9, 10, and 12, the CFAs were performed with the medium used for maintaining the keratinocytes. KCM4 needed to be supplemented with 5 μg/mL insulin to support colony growth. Colonies were allowed to grow for 8 days and colony size was measured. Following culture, plates were fixed and stained with Hoechst stain. The whole plate was imaged at 40× with an ImageXpress high content imager (Molecular Devices). The total number of colonies per well was counted and the size of each colony was measured using ImageJ software. Colony counts are shown in bar graphs where bar height represents the average number of colonies/well for each passage and the error bars represent the standard deviation. Colony sizes are presented in box and whisker plots where the center line represents the median, the box represents the inter-quartile range and the whiskers represent the 5-95 percentile. Data that fall outside this range are plotted individually.

[2] = test system: primary human keratinocytes; assay: Long-term culture of primary keratinocytes (population doubling); conditions: for keratinocyte growth: KCM1 with IGF or insulin 0-10 μg/mL; for life span and stemness of primary keratinocytes in culture: niacinamide 3 mM, BMP4 0.5 ng/mL as components of KCM4
Protocol: Keratinocytes were maintained in the indicated medium and passaged every 4-5 days (at ˜80% confluence). For passage, keratinocytes were incubated with a 0.1% Trypsin in Versene solution at 37° C. for 5 minutes. The trypsin was neutralized with 0.5 mg/mL of trypsin inhibitor. The cells were centrifuged at 1200 rpm for 4 min. Cells were counted with a Cellometer (Nexcelom). Cells (25,000-50,000) were plated per well of 6-well plates in the indicated keratinocyte culture media. Media was changed every other day.
Cells were maintained by serial passage at ˜80% confluence until senescence. The total number of cell doublings for each passage was calculated using the following formula: 3.32 log(N/No). Where No refers to the number of cells plated at the beginning of each passage and N is the number of cells recovered at the end of each passage.

[3] = test system: primary human keratinocytes; assay: Morphology analysis of primary keratinocytes; assay type: cell-based
human ESC/iPSCs = assay: iKCs derivation from human ESC/iPSCs: critical medium components; assay type: cell-based; conditions: for K14 expression with different fibroblast growth factors: anti-K14 immunofluorescence
[4] = test system: primary keratinocytes cultured in KCM4; assay type: cell-based, human; conditions: Passage 3 keratinocytes in KCM4, 1.5 mM Ca^2+ for 3 days
Protocol: Keratinocytes were cultured in KCM4 and at 80%-90% confluence, cells were either treated with 1.5 mM Ca^2+ for 3 days or fixed (no calcium control). Cells were assessed by immunocytochemistry for expression of differentiation markers Kl, Loricrin, and Filaggrin using polyclonal rabbit antibodies (Covance).

[5] = KCM1, IGF and low concentrations of insulin (0.05 μg/mL and 0 μg/mL)
[6] = Passage 0, Day 14 differentiation culture
[7] = Passage 0, Day 14 differentiation culture, phase-contrast

VEGF
effect in CFA in later passages ([1]; VEGF 25 ng/mL added to KCM4): Positive effect
proliferative potential in long-term culture ([2]; VEGF 25 ng/mL added to KCM4): increase the proliferative potential of keratinocytes; also recorded: increased the proliferative potential of primary keratinocytes
morphology after addition of VEGF ([3]; VEGF 25 ng/mL added to KCM4): did not show any morphological differences

insulin: insulin, medium supplement (0-10 μg/mL)
performance in CFA [1]: performed similarly
keratinocyte growth [2]: grew well at all concentrations
keratinocyte growth ([2]; listed as Insulin): support human neonatal foreskin primary keratinocyte growth
morphology at later passages (p6) [3, 5]: smaller and appear to be more tightly attached to each other
morphology at later passages (p6) ([3]; KCM1, high concentrations of insulin (1 μg/mL and higher)): many larger, differentiated cells

FGF2: fibroblast growth factor FGF2
K14 expression with different fibroblast growth factors (human ESC/iPSCs; [6]): did not promote homogeneous K14 expression

FGF1: acidic fibroblast growth factor
K14 expression with different fibroblast growth factors (human ESC/iPSCs; [6]): efficiently direct cells to express mature keratinocyte marker K14

Cc1cccc(-c2[nH]ncc2-c2ccc3ncccc3n2)n1 [TGFRKi, TGFβ RI Kinase Inhibitor II, reference compound]
iKCs derivation when component is left out of the media (human ESC/iPSCs; [7]): iKCs cannot be derived efficiently

EGF: epidermal growth factor (NSDSECPLSHDGYCLHDGVCMYIEALDKYACNCVVGYIGERCQYRDLKWWELR; UniProt P01133 971-1023, looked up)
differentiation when concentration of component is not sufficient (human ESC/iPSCs; [7]): the differentiation process was incomplete

NC(=O)c1cccnc1 [niacinamide, reference compound]
life span and stemness of primary keratinocytes in culture [2]: maintained the stemness of primary keratinocyte stem cells in culture
life span and stemness of primary keratinocytes in culture ([2]; listed as Niacinamide): extend the life span of primary keratinocytes in culture
cell size ([3]; primary keratinocytes cultured in the indicated medium): made the cells smaller
differentiation when concentration of component is not sufficient (human ESC/iPSCs; [7]): the differentiation process was incomplete

[Ca+2] [calcium]
expression of differentiation markers Keratin 1, Loricrin, and Filaggrin [4]: Expression of all three differentiation markers was detected
differentiation at too high medium level of component (human ESC/iPSCs; 1 mM): simple epithelial progenitors would not further differentiate into keratinocytes

IGF: IGF1 growth factor, medium supplement (10 ng/mL)
performance in CFA [1]: performed similarly
keratinocyte growth [2]: support human neonatal foreskin primary keratinocyte growth
morphology at later passages (p6) [3, 5]: smaller and appear to be more tightly attached to each other
